{"source": "patent US10758513B2", "about": "“Modulators of mitochondrial protein import” (THE REGENTS OF THE UNIVERSITY OF CALIFORNIA, priority 2011, dated 2020)", "key": {"zebrafish embryos": {"test_system": "zebrafish embryos", "assay": "Zebrafish embryo development", "format": "in vivo", "procedure": "Zebrafish used for o-dianisidine staining of red blood cells in DMSO and MitoBloCK-6 treated fish were albino lines generated from crosses of TL and TU fish. Line AB were injected with the ALR morpholino. Lines were maintained in a 14-hr light/10-hr dark cycle and mated for one hour to obtain synchronized embryonic development. […] Following treatment, embryos were imaged using a Leica MZ16F fluorescent stereoscope (TexasRed filter set) at 5× magnification. […] Embryos were allowed to mature to 2 dpf and then imaged like the MitoBloCK-6 treated embryos; embryos were imaged at day 2 because of concerns with morpholino dilution. Images were resized to 300 dpi without resampling using Adobe Photoshop software."}, "HeLa cells [1]": {"test_system": "HeLa cells", "assay": "Cyt c release assay by cell fractionation in HeLa cells", "format": "cell-based", "conditions": "50 μM MitoBloCK-6 12-16 h, 1 μM staurosporine 4 h", "procedure": "For cyt c release assays, a cell fractionation kit (MitoSciences) was used. Briefly, HeLa or HEK293 cells were grown in 10 cm^2 dishes to 80% confluency and then cells were treated with DMSO or MitoBloCK-6 in complete medium for 12-16 h. […] Cells were fractionated to obtain cytosolic and mitochondrial fractions; 100 μg of each fraction was analyzed by SDS-PAGE. Blots were probed with ApoTrack cyt c apoptosis antibody cocktail (MitoSciences)."}, "[2]": {"test_system": "tim10-1 tim9S mitochondria", "assay": "Respiration (oxygen electrode) of tim10-1 tim9S mitochondria", "format": "biochemical, yeast", "conditions": "NADH; 25 μM MitoBloCK-1; CCCP as control", "procedure": "Oxygen consumption of […] mitochondria was measured using methods previously described (8). Briefly, purified […] mitochondria aliquots (25 mg/mL) were thawed on ice and tested within 2 hours. A Clark-type oxygen electrode in a stirred, thermostatically controlled 1.5-ml chamber at 25° C. (Oxytherm; Hansatech) facilitated measurement. […] Consumption rate was monitored for approximately 2 min."}, "[3]": {"test_system": "tim10-1 tim9S mitochondria", "assay": "Membrane potential with rhodamine 123", "format": "biochemical, yeast", "conditions": "25 μM MitoBloCK-1; CCCP as control", "procedure": "Membrane potential measurement assays were conducted with a SPEX spectrofluorometer system (HORIBA Jobin Yvon) with a magnetically stirred cuvette held at 25° C. The quenching of rhodamine 123 fluorescence (Em, =530 nm and Ex=485 nm) was used as previously described (9) to detect changes in mitochondrial membrane potential. Purified tim10-1 tim9S mitochondrial aliquots were thawed and resuspended in respiration buffer (0.65 M mannitol, 0.3 mM EGTA, 3 mm tris-phosphate, 10 mM tris-maleate, pH 6.75). Trials were started by adding 100 nM of rhodamine 123 to respiration buffer. After a period of signal stabilization, mitochondria were added to a concentration of 100 μg/mL. Either drug or DMSO was then added to a final vehicle concentration of 1% following the establishment of baseline quenched fluorescence. Finally, mitochondria were uncoupled with 3 μM CCCP."}, "WT mitochondria": {"test_system": "WT mitochondria", "assay": "Respiration of WT mitochondria with NADH (oxygen electrode)", "format": "biochemical, yeast", "conditions": "25 μM MitoBloCK-6; CCCP control", "procedure": "Oxygen consumption of WT mitochondria was measured using methods previously described (Claypool et al., 2008a). Briefly, purified WT mitochondria (25 mg/ml) were thawed on ice and tested within 2 hours. Oxygen consumption assays were performed with a Clark-type oxygen electrode in a stirred thermostatically controlled 1.5-ml chamber at 25° C. (Oxytherm, Hansatech). […] Consumption rate was monitored for approximately 2 min. […] Consumption rate was monitored for approximately 3 mins. MitoBloCK-6, SAR compounds, or DMSO was then added and respiration measured for another 3 mins. Uncoupled respiration was achieved as described above."}, "HeLa cells [4]": {"test_system": "HeLa cells", "assay": "Mitochondrial morphology in HeLa cells", "format": "cell-based", "conditions": "50 μM 12-16 h, up to 100 μM, 20 μM CCCP control", "procedure": "(A) HeLa cells were transiently transfected with Su9-EGFP. Following transfection, cells were treated for 12 hr with 50 μM MitoBloCK-6 or control 1% DMSO. As a positive control, cells were incubated with 20 μM CCCP to dissipate the membrane potential. Mitochondria were also stained with 10 μM MitoTracker Red. Mitochondrial morphology was assessed by fluorescence microscopy and the Mitotracker Red and GFP channels were superimposed (Merge). (B) The effect of MitoBloCK-6 on the viability of HeLa cells was assessed with a MTT-based toxicology assay. Cultured cells were treated for 12-16 hr with DMSO or 50 μM and 100 μM MitoBloCK-6. Bars display mean cell viability where 100% was defined as signal from untreated samples. Error bars display standard error of the mean (n=5). (C) The release of cyt c was investigated. Cells were treated with 1% DMSO or 50 μM MitoBloCK-6 for 12-16 hr and fractionated into mitochondrial (M) and cytosolic (C) fractions. Release of mitochondrial proteins was assessed by immunoblot analysis with antibodies against cyt c, Complex V (ATP synthase subunit alpha), pyruvate dehydrogenase (PDH), and cytosolic GAPDH. Treatment with 1 μM staurosporine for 4 hr induced apoptosis and was included as a positive control.\nFor microscopy experiments, HeLa or HEK293 cells were transiently transfected with Su9-EGFP (Lipofectamine, Invitrogen) at 80% confluency. […]"}, "succinate dehydrogenase": {"target": "T1, succinate dehydrogenase (Saccharomyces cerevisiae, UniProt Q00711)", "T1 construct": "endogenous in cells; host or cells: mitochondria isolated from WT yeast", "T1 sequence (Q00711 29-640)": "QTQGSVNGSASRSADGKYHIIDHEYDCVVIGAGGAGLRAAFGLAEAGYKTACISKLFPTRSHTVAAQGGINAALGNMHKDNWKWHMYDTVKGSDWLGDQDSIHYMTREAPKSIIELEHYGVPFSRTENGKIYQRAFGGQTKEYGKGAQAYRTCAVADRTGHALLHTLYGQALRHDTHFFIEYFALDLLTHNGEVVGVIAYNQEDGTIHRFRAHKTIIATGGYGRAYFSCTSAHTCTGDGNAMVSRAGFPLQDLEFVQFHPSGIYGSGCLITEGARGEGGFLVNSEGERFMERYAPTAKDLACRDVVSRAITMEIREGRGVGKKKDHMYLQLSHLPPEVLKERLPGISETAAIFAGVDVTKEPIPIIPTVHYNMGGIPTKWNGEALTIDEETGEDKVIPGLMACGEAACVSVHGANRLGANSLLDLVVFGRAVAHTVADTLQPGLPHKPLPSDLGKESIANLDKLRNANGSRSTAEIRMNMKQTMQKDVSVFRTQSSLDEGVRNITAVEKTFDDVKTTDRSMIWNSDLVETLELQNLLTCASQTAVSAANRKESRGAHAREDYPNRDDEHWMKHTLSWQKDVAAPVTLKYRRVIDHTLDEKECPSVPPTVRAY", "T1 sequence (P21801 21-266 partner)": "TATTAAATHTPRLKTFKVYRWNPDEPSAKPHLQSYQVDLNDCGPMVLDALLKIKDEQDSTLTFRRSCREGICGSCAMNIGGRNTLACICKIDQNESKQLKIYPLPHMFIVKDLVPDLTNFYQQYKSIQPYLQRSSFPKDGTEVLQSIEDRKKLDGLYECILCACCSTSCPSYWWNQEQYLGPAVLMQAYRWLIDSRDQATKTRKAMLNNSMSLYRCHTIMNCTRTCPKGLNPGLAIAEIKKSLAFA", "T1 sequence (P33421 51-198 partner)": "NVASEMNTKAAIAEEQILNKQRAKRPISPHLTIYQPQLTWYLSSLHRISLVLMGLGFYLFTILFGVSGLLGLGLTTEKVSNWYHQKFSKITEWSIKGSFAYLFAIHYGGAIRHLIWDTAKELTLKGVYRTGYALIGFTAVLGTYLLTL", "T1 sequence (P37298 32-181 partner)": "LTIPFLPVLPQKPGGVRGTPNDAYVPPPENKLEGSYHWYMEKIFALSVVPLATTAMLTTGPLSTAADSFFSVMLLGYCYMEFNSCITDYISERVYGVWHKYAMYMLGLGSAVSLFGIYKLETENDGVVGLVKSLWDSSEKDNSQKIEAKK", "assay": "Succinate dehydrogenase activity in WT mitochondria (oxygen electrode)", "format": "biochemical, yeast", "conditions": "25 or 50 μM MitoBloCK-6; 20 mM malonate control", "procedure": "(A) 160 μM insulin was reacted with 3 units of PDI in the presence of buffer, 1 mM bacitracin, or MitoBloCK-6 (MB-6). Reduction of insulin chains was initiated by the addition of DTT. The samples were incubated for 30 min at room temperature and then the turbidity was measured at a wavelength of 630 nm using a Bio-Tek plate-reader. (B) Succinate dehydrogenase activity was measured in WT mitochondria using a Clark-type oxygen electrode. Respiration was initiated with 10 mM succinate and, when steady-state respiration was established, 25 or 50 μM MitoBloCK-6, 50 μM ES-1, 50 μM ES-2, or 1% DMSO was added. Controls included 20 mM malonate that inhibits succinate dehydrogenase activity and CCCP that uncouples electron transport. The rate is reported as nmol O2 consumed/sec.\nOxygen consumption of WT mitochondria was measured using methods previously described (Claypool et al., 2008a). Briefly, purified WT mitochondria (25 mg/ml) were thawed on ice and tested within 2 hours. […] Consumption rate was monitored for approximately 2 min. MitoBloCK-6 or DMSO was then added to a final vehicle concentration of 1% and respiration was measured for another approximately 1.5 min. […] Consumption rate was monitored for approximately 3 mins. MitoBloCK-6, SAR compounds, or DMSO was then added and respiration measured for another 3 mins. […]"}, "[5]": {"test_system": "tim10-1 tim9S mitochondria", "assay": "In vitro import of radiolabeled precursors into tim10-1 tim9S mitochondria", "format": "biochemical, yeast", "conditions": "SAR study", "procedure": "Prior to import into purified mitochondria, ^35S-methionine and cysteine labeled proteins were generated with TNT Quick Coupled Transcription/Translation kits (Promega) and plasmids carrying the gene of interest. Transcription of genes was driven by either a T7 or SP6 promoter. Import reactions were conducted according to established methods. After frozen mitochondria aliquots were thawed and added to the import buffer at a final concentration of 100 μg/mL, drug or DMSO vehicle was added as indicated. A final vehicle concentration of 1% was used in all experiments. Following 15 minute incubation at 25° C., import reactions were initiated by the addition of […] of translation mix. Aliquots were removed at intervals during the reaction timecourse and import was terminated with either cold buffer, 25 μg/mL trypsin, or a combination of both. If trypsin was added to digest unimported precursor protein, soybean trypsin inhibitor (STI) was subsequently added in excess after 15 minute incubation on ice. After a final recovery of by centrifugation (8,000×g, 5 minutes), mitochondria were disrupted in Laemmli sample buffer. Imports of membrane proteins (AAC, PiC, Tom40, Tim22, and Tim23) included a carbonate extraction step to remove proteins that had not inserted into the membrane (Koehler C M, et al. (1998), Science 279:369-373). Samples from import reaction time points were resolved by SDS polyacrylamide gel electrophoresis (SDSPAGE) and gels were dried prior to exposing to film."}, "Erv1": {"target": "T2, Erv1 (Saccharomyces cerevisiae, UniProt P27882)", "T2 construct": "made in house", "T2 sequence (P27882 1-189)": "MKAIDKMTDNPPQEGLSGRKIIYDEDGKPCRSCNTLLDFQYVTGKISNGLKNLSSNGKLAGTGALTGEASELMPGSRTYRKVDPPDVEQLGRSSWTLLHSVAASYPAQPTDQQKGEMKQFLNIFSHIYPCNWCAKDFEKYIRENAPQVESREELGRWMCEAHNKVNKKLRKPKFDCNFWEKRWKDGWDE", "assay": "In vitro Erv1 oxidase activity, Amplex Red-HRP assay", "format": "biochemical, yeast", "conditions": "100 μM", "quoted_text": "The primary chemical screen used fresh recombinant Erv1 (in buffer 30 mM Hepes, pH 7.4, 100 mM NaCl, 1 mM EDTA) at a concentration of 10 μM, which was expressed as described previously. […] A Biomek FX (Beckman Coulter) was used to pin transfer 0.5 μl of compound from 1 mM stock or DMSO to respective wells. Approximate screening\nconcentration was 12.5 μM. After completed compound transfer, all plates were incubated at 25° C. in a humidified incubator for 1 hour. A Titertek multidrop was used to dispense 15 μl of Amplex Red-horseradish peroxidase (HRP) (Sigma) mix into all wells of the 384-well plate. The final concentration of Amplex Red and HRP were 46 μM and 0.092 U/ml, respectively. The Amplex Red-HRP solution was shielded from light during the entire experiment. The plates were incubated for an additional 10 min and then 15 μl of the substrate DTT (20 μM) was added to initiate the reduction of 02 to H2O2. […] Plates were then read at an endpoint using an excitation wavelength of 545 nm and an emission wavelength of 590 nm. […]\nH2O2 production was measured using a standard fluorometric assay with Amplex Red and horseradish peroxidase (HRP). […] Fluorescence intensity was measured and reactions that were inhibited by more than 50% were picked as potential Erv1 inhibitors and selected for secondary analysis."}}}
{"molecule": "ALR morpholino: ATG morpholino targeted to zebrafish ALR protein (GAGGGTTGCCAGATCTCTGTTAAAT) (all phosphorodiamidate morpholino (PMO)) [reference compound]", "values": [{"measurement": "phenotypes of morpholino-injected embryos", "setting": "zebrafish embryos; 4 ng injected in 1-cell embryos", "value": "identical to that of MitoBlock-6 exposure"}, {"measurement": "decreased heart rate", "setting": "zebrafish embryos; embryos treated with MitoBloCK-6 or ALR morpholino", "value": 25, "unit": "%"}]}
{"molecule": "CN[C@@H]1C[C@H]2O[C@@](C)([C@@H]1OC)n1c3ccccc3c3c4c(c5c6ccccc6n2c5c31)C(=O)NC4", "note": "[staurosporine]", "values": [{"measurement": "cyt c release", "setting": "HeLa cells [1]", "value": "showed cyt c release"}]}
{"molecule": "N#CC(C#N)=NNc1cccc(Cl)c1", "note": "[CCCP, carbonyl cyanide m-chlorophenylhydrazone, reference compound]", "values": [{"measurement": "rate of respiration", "setting": "[2]", "value": "respiration increased drastically"}, {"measurement": "rhodamine 123 fluorescence (membrane potential)", "setting": "[3]", "value": "sharp increase in fluorescence"}, {"measurement": "oxygen consumption rate (NADH respiration)", "setting": "WT mitochondria", "value": "respiration increased drastically"}, {"measurement": "mitochondrial network / morphology", "setting": "HeLa cells [4]", "value": "caused the mitochondrial network to collapse around the nucleus"}]}
{"molecule": "O=C(O)CC(=O)O", "note": "[malonate]", "values": [{"measurement": "succinate dehydrogenase activity (oxygen consumption rate with succinate)", "setting": "succinate dehydrogenase", "value": "disrupted"}]}
{"molecule": "Cc1ccc2c(c1)C1CCC/C(=N\\NC(N)=S)C1N2C", "note": "(stereo not shown) [Analog B]", "values": [{"measurement": "inhibition of import of AAC by analogs", "setting": "[5]", "value": "Analog D was the only compound to inhibit import of AAC"}]}
{"molecule": "O=Cc1cc(Cl)cc(Cl)c1O", "note": "[3,5-dichlorosalicylaldehyde, reference compound]", "values": [{"measurement": "Erv1 activity", "setting": "Erv1", "value": "did not inhibit Erv1 activity"}]}
